From patent US10576147B2, “Muramyl peptide derivative compound, synthesis and uses thereof” (BHARAT BIOTECH INTERNATIONAL LIMITED, priority 2015, dated 2020)

Columns and labels:
[1] = test system: BALB/c mice; test: Total IgG1 and IgG2a after immunization (sandwich ELISA); assay type: in vivo; settings: OVA 100 μg alone
Method: (§1) Male BALB/c mice were immunized subcutaneously with OVA 100 μg alone or with OVA 100 μg dissolved in saline containing analogues (7.5, 15 or 30 μg) on Days 1 and 15. Sera were collected 2 weeks after the last immunization. Total IgG1 and IgG2a antibodies in the sera were measured by Sandwich ELISA. The values are presented as log 2 titre.

[2] = test system: BALB/c mice; test: OVA-specific IgG after immunization (indirect ELISA); assay type: in vivo; settings: OVA 100 μg alone, s.c. Days 1 and 15, sera 2 weeks after last immunization
Method: as §1, with “OVA-specific IgG” for “Total IgG1 and IgG2a”, “an Indirect” for “Sandwich”

With “OVA: Ovalbumin (OVA) antigen, given alone” the “Log(2) Total IgG1 Antibody Titre” value [1] was 14.39, the “Log(2) Total IgG2a Antibody Titre” value [1] was 11.89 and the “Log(2) IgG Antibody Titre” value [2] was 12.64.
